In ChEMBL document CHEMBL1201862, “PubChem BioAssay data set” (2004):
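In this assay, cells in 96-well plates receive the compound at five concentrations for 48 hours. Endpoints are linearly interpolated between the surrounding concentrations. Here, GI50 denotes the concentration required for 50% inhibition of growth.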 Calls of active or inactive are those of the source. Rule as the data show it: active = GI50 up to about 1.1 µM and inactive = higher.

Assays:
Test in all cases: NCI anticancer screen, dose series, 48 h
PC-3 = tested on: PC-3
EKVX = tested on: EKVX
UACC-62 = tested on: UACC-62
HOP-92 = tested on: HOP-92
SK-MEL-5 = tested on: SK-MEL-5
TK-10 = tested on: TK-10
K562 = tested on: K562
SK-MEL-2 = tested on: SK-MEL-2
RXF 393 = tested on: RXF 393
KM12 = tested on: KM12
SW-620 = tested on: SW-620
MDA-MB-231 = tested on: MDA-MB-231
SK-MEL-28 = tested on: SK-MEL-28
MDA-MB-435 = tested on: MDA-MB-435
U-251 = tested on: U-251
Hs-578T = tested on: Hs-578T
RPMI-8226 = tested on: RPMI-8226
NCI-H23 = tested on: NCI-H23
BT-549 = tested on: BT-549
NCI-H522 = tested on: NCI-H522

Measured: GI50

CC1(C)C(CCO)CC1n1ccc(=O)[nH]c1=O (centres undefined)
inactive: PC-3 > 100 µM | EKVX > 100 µM | UACC-62 > 100 µM | HOP-92 > 100 µM | SK-MEL-5 > 100 µM | TK-10 > 100 µM | K562 10.6 µM | SK-MEL-2 > 100 µM | RXF 393 > 100 µM | KM12 > 100 µM | SW-620 > 100 µM | MDA-MB-231 > 100 µM | SK-MEL-28 > 100 µM | MDA-MB-435 > 100 µM | U-251 > 100 µM | Hs-578T > 100 µM

CC(=O)NC(CC(C)C)C(=O)NC(CC(C)C)C(=O)NC(C=O)CCCNC(=N)N (centres undefined)
inactive: RPMI-8226 > 100 µM | PC-3 > 100 µM | NCI-H23 > 100 µM | EKVX > 100 µM | UACC-62 > 100 µM | HOP-92 > 100 µM | SK-MEL-5 > 100 µM | TK-10 > 100 µM | K562 > 100 µM | SK-MEL-2 > 100 µM | KM12 > 100 µM | BT-549 > 100 µM | SW-620 > 100 µM | MDA-MB-231 > 100 µM | NCI-H522 > 100 µM | SK-MEL-28 > 100 µM | MDA-MB-435 > 100 µM | U-251 > 100 µM

C[C@H](c1ccccc1)N1C(=O)[C@@H](O)[C@H]1[C@H](CO)OCc1ccccc1
inactive: RPMI-8226 > 100 µM | PC-3 > 100 µM | NCI-H23 > 100 µM | EKVX > 100 µM | UACC-62 > 100 µM | HOP-92 96.4 µM | SK-MEL-5 > 100 µM | TK-10 > 100 µM | K562 > 100 µM | SK-MEL-2 > 100 µM | KM12 > 100 µM | SW-620 > 100 µM | MDA-MB-231 > 100 µM | SK-MEL-28 > 100 µM | MDA-MB-435 > 100 µM | U-251 > 100 µM | Hs-578T > 100 µM

N=C(N)/N=C(\N)Nc1cnccn1
inactive: PC-3 > 100 µM | NCI-H23 > 100 µM | EKVX > 100 µM | UACC-62 > 100 µM | HOP-92 > 100 µM | SK-MEL-5 > 100 µM | TK-10 > 100 µM | K562 > 100 µM | SK-MEL-2 > 100 µM | RXF 393 > 100 µM | KM12 > 100 µM | SW-620 > 100 µM | MDA-MB-231 > 100 µM | NCI-H522 > 100 µM | SK-MEL-28 > 100 µM | MDA-MB-435 > 100 µM | U-251 > 100 µM

Cc1cc2c(cc1Cl)SC(c1ccccc1)C(=O)NS2(=O)=O (centres undefined)
inactive: RPMI-8226 34 µM | PC-3 26.4 µM | NCI-H23 24.4 µM | EKVX 70.1 µM | HOP-92 30.5 µM | SK-MEL-5 21.6 µM | TK-10 37.6 µM | K562 39.2 µM | SK-MEL-2 17.3 µM | RXF 393 31.4 µM | KM12 30.3 µM | SW-620 40 µM | MDA-MB-231 32.3 µM | NCI-H522 25.9 µM | SK-MEL-28 34.8 µM | MDA-MB-435 35.1 µM | U-251 23.1 µM | Hs-578T 27.5 µM

O=C1/C(=C/c2ccccc2)NC(=S)N1CN1CCCCC1
inactive: RPMI-8226 > 100 µM | PC-3 > 100 µM | NCI-H23 > 100 µM | EKVX > 100 µM | UACC-62 > 100 µM | HOP-92 > 100 µM | SK-MEL-5 > 100 µM | K562 > 100 µM | SK-MEL-2 > 100 µM | KM12 > 100 µM | SW-620 > 100 µM | MDA-MB-231 > 100 µM | SK-MEL-28 > 100 µM | MDA-MB-435 > 100 µM | U-251 > 100 µM | Hs-578T > 100 µM

O=C(O)c1ccccc1CC(Cc1ccc2c(c1)CCC2)C(=O)O (centres undefined)
inactive: RPMI-8226 > 100 µM | PC-3 > 100 µM | NCI-H23 > 100 µM | EKVX > 100 µM | HOP-92 > 100 µM | SK-MEL-5 > 100 µM | TK-10 > 100 µM | K562 > 100 µM | SK-MEL-2 > 100 µM | RXF 393 > 100 µM | KM12 > 100 µM | SW-620 > 100 µM | MDA-MB-231 > 100 µM | NCI-H522 > 100 µM | SK-MEL-28 > 100 µM | MDA-MB-435 > 100 µM | U-251 > 100 µM | Hs-578T > 100 µM

CN(C)/C=N/c1ccc2nonc2c1
inactive: RPMI-8226 > 100 µM | PC-3 > 100 µM | NCI-H23 > 100 µM | EKVX > 100 µM | UACC-62 > 100 µM | SK-MEL-5 > 100 µM | TK-10 > 100 µM | K562 > 100 µM | SK-MEL-2 > 100 µM | RXF 393 > 100 µM | KM12 > 100 µM | SW-620 > 100 µM | MDA-MB-231 > 100 µM | NCI-H522 > 100 µM | SK-MEL-28 > 100 µM | MDA-MB-435 > 100 µM | Hs-578T > 100 µM

N#C/N=C(/N)c1sc2nc3c(c(-c4ccc(Br)cc4)c2c1N)CCCC3
inactive: RPMI-8226 17.1 µM | PC-3 11.6 µM | NCI-H23 26.1 µM | UACC-62 13.9 µM | HOP-92 21 µM | SK-MEL-5 4.37 µM | TK-10 33.1 µM | K562 9.23 µM | SK-MEL-2 13.2 µM | RXF 393 17.7 µM | KM12 21.3 µM | SW-620 43.7 µM | MDA-MB-231 20.6 µM | SK-MEL-28 32.9 µM | MDA-MB-435 2.73 µM | U-251 24.2 µM

SC[C@@H]1COC[C@H](CS)S1
inactive: PC-3 > 100 µM | NCI-H23 > 100 µM | EKVX > 100 µM | UACC-62 > 100 µM | SK-MEL-5 > 100 µM | TK-10 > 100 µM | K562 > 100 µM | KM12 > 100 µM | BT-549 > 100 µM | SW-620 > 100 µM | MDA-MB-231 > 100 µM | NCI-H522 > 100 µM | SK-MEL-28 > 100 µM | MDA-MB-435 > 100 µM | U-251 > 100 µM

CCOC(=O)[C@@H]1ON2O[C@H](OC3CCCCC3c3ccccc3)C[C@H]3OC(=O)[C@@H]1C32 (some centres undefined)
inactive: RPMI-8226 > 100 µM | NCI-H23 27 µM | EKVX > 100 µM | UACC-62 > 100 µM | HOP-92 > 100 µM | SK-MEL-5 > 100 µM | TK-10 > 100 µM | K562 > 100 µM | RXF 393 > 100 µM | KM12 80 µM | SW-620 > 100 µM | MDA-MB-231 > 100 µM | NCI-H522 67.6 µM | MDA-MB-435 > 100 µM | U-251 > 100 µM | Hs-578T > 100 µM

Nc1ncnc2c1ncn2C1OC(CSCC(F)(F)F)C(O)C1O (centres undefined)
inactive: RPMI-8226 > 100 µM | NCI-H23 > 100 µM | EKVX > 100 µM | UACC-62 > 100 µM | HOP-92 > 100 µM | SK-MEL-5 > 100 µM | TK-10 > 100 µM | K562 > 100 µM | SK-MEL-2 > 100 µM | RXF 393 > 100 µM | KM12 > 100 µM | SW-620 > 100 µM | NCI-H522 45 µM | SK-MEL-28 > 100 µM | U-251 > 100 µM
